The source of these data is article PMC10746189, “Campylobacter jejuni uses energy taxis and a dehydrogenase enzyme for L-fucose chemotaxis” (mBio, 2023).

In this assay the target is T1, FucX (Campylobacter jejuni, UniProt Q0PB28).
T1 construct: gene Cj0485; His-tagged FucX from pET30a(+)-fucX, expressed in E. coli BL21, Ni-NTA purified, desalted
Briefly: dehydrogenase assay, NADPH absorbance at […] nm. The assay is classed as biochemical. To be noted: 5 nM protein; 1 mM L-fucose; 100 µM NADP+; 1 mM MgCl2; 50 mM Tris-HCl pH 7.5; room temperature.

T1 sequence (Q0PB28 entry or part of it): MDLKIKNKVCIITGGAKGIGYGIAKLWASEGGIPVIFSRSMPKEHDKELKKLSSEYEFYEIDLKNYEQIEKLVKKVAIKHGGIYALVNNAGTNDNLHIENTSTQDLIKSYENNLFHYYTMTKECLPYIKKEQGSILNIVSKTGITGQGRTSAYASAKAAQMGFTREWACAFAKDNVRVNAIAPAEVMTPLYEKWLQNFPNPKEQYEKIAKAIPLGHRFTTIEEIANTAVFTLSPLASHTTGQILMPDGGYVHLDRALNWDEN

In the case of `C[C@@H]1OC(O)[C@@H](O)[C@H](O)[C@@H]1O` (stereo partly drawn) [L-fucose], the “dehydrogenase assay, NADPH absorbance at 340 nm” value was “L-Fucose dehydrogenase activity of indicated FucX pure proteins: (+), with L-fucose; (−), no L-fucose”.
